Laboratory results taken from patent US20240182456A1, “2-((4-((S)-2-(4-CHLORO-2-FLUOROPHENYL)-2-METHYLBENZO[D][1,3]DIOXOL-4-YL)PIPERIDIN-1-YL)METHYL)-1-(((S)-OXETAN-2-YL)METHYL)-1H-IMIDAZOLE DERIVATIVES AS ACTIVATORS OF THE GLP1 RECEPTOR FOR THE TREATMENT OF OBESITY” (Novartis AG, priority 2021, published 2024).

Target: human GLP1R (Homo sapiens, UniProt P43220)
Experiment: Human GLP1R DERET internalization assay
Assay type: cell-based
Settings: HEK293-SNAP-hGLP1R-GloSensor cells; for EC50: mean n=2; for Emax: relative to GLP1(7-36)
How it was run: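 HEK293 cells stably expressing SNAP-tagged hGLP1R, labelled with SNAP-Lumi-Tb, then exposed at 37 °C to 3-fold compound dilutions (top 30 μM) with 25 μM fluorescein. Donor/acceptor TR-FRET ratio read every 30 min. EC50 and Emax from 4-parameter fits, normalised to the GLP1(7-36) EC100 (top 1 μM) and buffer-only EC0 wells.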

Sequence of human GLP1R (P43220 24-463): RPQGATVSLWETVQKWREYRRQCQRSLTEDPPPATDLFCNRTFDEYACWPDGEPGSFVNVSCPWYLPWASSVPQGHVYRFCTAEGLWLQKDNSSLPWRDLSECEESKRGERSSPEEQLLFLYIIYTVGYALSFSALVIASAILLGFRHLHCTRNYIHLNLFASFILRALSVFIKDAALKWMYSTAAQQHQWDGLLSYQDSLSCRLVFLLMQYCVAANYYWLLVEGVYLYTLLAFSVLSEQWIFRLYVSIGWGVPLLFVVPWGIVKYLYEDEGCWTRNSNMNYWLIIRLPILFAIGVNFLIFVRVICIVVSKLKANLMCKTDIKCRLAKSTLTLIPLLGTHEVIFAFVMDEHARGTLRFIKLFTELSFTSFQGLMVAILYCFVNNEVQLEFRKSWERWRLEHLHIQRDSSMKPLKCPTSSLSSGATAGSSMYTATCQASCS

SMILES	EC50	Emax
C[C@]1(c2ccc(Cl)cc2F)Oc2cccc(C3CCN(Cc4ncc(/C=C/C(=O)O)n4C[C@@H]4CCO4)CC3)c2O1 [Compound C-1, (E)-3-(2-((4-((S)-2-(4-chloro-2-fluorophenyl)-2-methylbenzo[d][1,3]dioxol-4-yl)piperidin-1-yl)methyl)-1-(((S)-oxetan-2-yl)methyl)-1H-imidazol-5-yl)acrylic acid]	336 nM	67%
C[C@]1(c2ccc(Cl)cc2F)Oc2cccc(C3CCN(Cc4nc(/C=C/C(=O)O)cn4C[C@@H]4CCO4)CC3)c2O1 [Compound C-2, (E)-3-(2-((4-((S)-2-(4-chloro-2-fluorophenyl)-2-methylbenzo[d][1,3]dioxol-4-yl)piperidin-1-yl)methyl)-1-(((S)-oxetan-2-yl)methyl)-1H-imidazol-4-yl)acrylic acid]	> 30000 nM	5%
Cc1nc(CN2CCC(c3cccc4c3O[C@@](C)(c3ccc(Cl)cc3F)O4)CC2)n(C[C@@H]2CCO2)c1/C=C/C(=O)O [Compound C-5, (E)-3-(2-((4-((S)-2-(4-chloro-2-fluorophenyl)-2-methylbenzo[d][1,3]dioxol-4-yl)piperidin-1-yl)methyl)-4-methyl-1-(((S)-oxetan-2-yl)methyl)-1H-imidazol-5-yl)acrylic acid]	89 nM	58%
C[C@]1(c2ccc(Cl)cc2F)Oc2cccc(C3CCN(Cc4nc(C(F)(F)F)c(C(=O)O)n4C[C@@H]4CCO4)CC3)c2O1 [Compound C-7, 2-((4-((S)-2-(4-chloro-2-fluorophenyl)-2-methylbenzo[d][1,3]dioxol-4-yl)piperidin-1-yl)methyl)-1-(((S)-oxetan-2-yl)methyl)-4-(trifluoromethyl)-1H-imidazole-5-carboxylic acid]	> 30000 nM	3%
